Source: patent US20240141299A1, “Cofactors FAD and PLP for Promoting Pancreatic Progenitors in Pancreatic Development” (Qatar Foundation for Education, Science and Community …, priority 2022, published 2024)

Assays:
[1] = target: T1, SOX9 HMG domain (Mus musculus, UniProt Q04887); test: UV-visible absorbance spectroscopy of purified SOX9 HMG domain for bound cofactor; type: binding; conditions: purified SOX9 HMG domain from bacterial expression; FIG. 1E
T1 construct: construct containing HMG and N-terminal domain, 1-173 amino acids; His tag (pET-28a) (N); made in house; host or cells: E. coli BL21(DE3)-RIL
T1 sequence (Q04887 1-173): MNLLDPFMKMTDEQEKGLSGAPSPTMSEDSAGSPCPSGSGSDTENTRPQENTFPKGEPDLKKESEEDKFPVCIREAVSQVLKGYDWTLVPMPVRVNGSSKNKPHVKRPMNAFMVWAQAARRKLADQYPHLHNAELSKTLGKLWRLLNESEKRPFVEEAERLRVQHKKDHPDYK
Experimental: Purified SOX9 proteins of 2-4 mg/ml concentration are used for reading the absorbance of bind cofactors. The UV-Vis spectra are obtained on a UV-Vis spectrophotometer BMS (Biotechnology Medical Science) UV-1602, scanning from 300 nm to 800 nm. The baseline is corrected with the buffer used to prepare the protein samples.

[2] = target: T2, SOX2 HMG domain (Homo sapiens, UniProt P48431); test: UV-visible absorbance spectroscopy of purified SOX2 HMG domain for bound cofactor; type: binding; conditions: purified SOX2 HMG domain from bacterial expression
T2 construct: made in house
T2 sequence (P48431 41-109 limits assumed): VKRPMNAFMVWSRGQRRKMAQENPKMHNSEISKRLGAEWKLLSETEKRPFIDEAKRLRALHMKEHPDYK

[3] = target: T1, SOX9 HMG domain; test: 1D-PAGE in-gel digest and LC-MS/MS of SOX9 HMG domain to identify bound cofactor; type: binding; conditions: purified SOX9 HMG domain; FIG. 2
Experimental: MS data are analyzed and annotated with Genedata Expressionist software (v.13.0.1) using the Peptide Mapping Tool. The raw MS data are processed using two Genedata modules: Refiner MS for data pre-processing, and Analyst for data post-processing and statistical analyses. Briefly, after noise reduction, LC-MS1 base peaks are detected and their properties calculated (m/z and RT boundaries, m/z and RT center values, intensity). Chromatograms are further aligned based on the RT spectra using a 2 min range. Individual peaks are grouped into clusters and MS/MS data associated to these clusters are annotated with the Peptide Mapping Tool using the FASTA sequence of sp|Q04887|SOX9_MOUSE Transcription factor SOX-9. The search is performed with a peptide tolerance of 0.1 Da, a MS/MS tolerance of 0.01 Da, two allowed missed cleavages, and only annotations with a minimum score of 10 are considered. As variable modifications, the following parameters are applied: carbamidomethyl (C) maximum: 2 per sequence allowed: anywhere, FAD (C), FAD (H), FAD (Y) maximum: 2 per sequence allowed: anywhere, FMN (S), FMN (T) maximum: 2 per sequence allowed: anywhere, pyridoxal phosphate (K) maximum: 2 per sequence allowed: anywhere, and pyridoxal phosphate H2 (K) maximum: 2 per sequence allowed: anywhere.

[4] = test system: hiPSC-derived pancreatic progenitors; test: Expression of pancreatic developmental markers after cofactor treatment of differentiating hiPSCs (FIG. 5, FIG. 8); type: cell-based, human
Experimental: Human induced pluripotent stem cells (hiPSCs) are cultured and maintained using mTeSR Plus medium (Stem Cell Technologies, Canada), then plated on 1:50 Matrigel-coated dishes (Corning, USA). Upon reaching 70-80% confluency, cells are differentiated into pancreatic progenitors using a protocol described by Memon et al. (Memon et al. Stem Cell Research and Therapy, 9, Article 15, 2018). Cells are treated with different concentrations of FAD (0.25 μM, 0.5 μM, and 1 μM) (Sigma-Aldrich, Germany) during the four days of pancreatic progenitor stage of in vitro differentiation. The control cells are treated with water.

[5] = test system: hiPSC-derived pancreatic progenitors; test: Immunostaining of PDX1 and NKX6.1 in FAD-treated pancreatic progenitors; type: cell-based, human; conditions: different FAD concentrations during four days of pancreatic progenitor stage; FIG. 6
Experimental: (§1) Human induced pluripotent stem cells (hiPSCs) are cultured and maintained using mTeSR Plus medium (Stem Cell Technologies, Canada), then plated on 1:50 Matrigel-coated dishes (Corning, USA). Upon reaching 70-80% confluency, cells are differentiated into pancreatic progenitors using a protocol described by Memon et al. (Memon et al. Stem Cell Research and Therapy, 9, Article 15, 2018). Cells are treated with different concentrations of FAD (0.25 μM, 0.5 μM, and 1 μM) (Sigma-Aldrich, Germany) during the four days of pancreatic progenitor stage of in vitro differentiation. The control cells are treated with water. After the treatment period, cells are fixed and immunostaining is performed using previously reported protocols by Memon et al. Cells are also collected for total protein extraction using Radioimmunoprecipitation Assay (RIPA) lysis buffer and are normalized to 20 ng/μL before SDS-PAGE separation. Nitrocellulose membranes are blocked using 15% skimmed milk in 0.5% tris-buffered saline (TBST). Membranes are then incubated with primary antibodies overnight at 4° C. Membranes are washed with 0.5% TBST and secondary antibodies are added for 1 hour at room temperature. Membranes are developed using SuperSignal West Pico Chemiluminescent substrate (Pierce, Loughborough, UK) and are then visualized using iBright™ CL 1000 Imaging System (Invitrogen).

[6] = test system: hiPSC-derived pancreatic progenitors; test: Western blotting of transcription factors in FAD-treated pancreatic progenitors; type: cell-based, human; conditions: FIG. 7
Experimental: as §1

Compound	absorbance peak at approximately 420 nm (FAD-bound protein) [1]	absorbance peak at approximately 420 nm (FAD-bound protein) [2]	cofactor binding detected by LC-MS/MS peaks [3]	relative changes in NGN3 and NKX6.1 ([4]; FAD added to early stage differentiation, FIG. 5)	expression of NGN3 ([4]; about 0.5 μM FAD, FIG. 8A)	co-expression of PDX1 and NKX6.1 (efficiency of pancreatic progenitor differentiation) [5]	PTF1a level (exocrine marker) ([6]; 0.5 μM and 1 μM FAD)	SOX9 level ([6]; FAD 0.25 μM, 0.5 μM, 1 μM, four days of pancreatic progenitor stage)	expression of NGN3 ([4]; about 4 μM-8 μM PLP, FIG. 8B)	expression of PTF1a ([4]; about 4 μM-8 μM PLP, FIG. 8B)
Cc1cc2nc3c(=O)[nH]c(=O)nc-3n(C[C@H](O)[C@H](O)[C@H](O)COP(=O)(O)OP(=O)(O)OC[C@H]3O[C@@H](n4cnc5c(N)ncnc54)[C@H](O)[C@@H]3O)c2cc1C [FAD, Flavin Adenine Dinucleotide]	peak at approximately 420 nm characteristic of an FAD-bound protein	no obvious peak	suggestive of FAD, FMN and PLP binding	appears to increase pancreatic developmental factors	along with NGN3	most of the pancreatic progenitor cells co-expressed PDX1 and NKX6.1	increased	increases gradually with increased FAD concentrations	–	–
Cc1cc2nc3c(=O)[nH]c(=O)nc-3n(C[C@H](O)[C@H](O)[C@H](O)COP(=O)(O)O)c2cc1C [FMN, Flavin Mononucleotide]	–	–	suggestive of FAD, FMN and PLP binding	–	–	–	–	–	–	–
Cc1ncc(COP(=O)(O)O)c(C=O)c1O [PLP, Pyridoxal 5′-phosphate]	–	–	suggestive of FAD, FMN and PLP binding	–	–	–	–	–	high expression of NGN3	appearance of PTF1a
